Data on 30 compounds can be found in patent US20170027172A1, “USE OF SUBSTITUTE OXO TETRAHYDROQUINOLINE SULFONAMIDES OR SALTS THEREOF FOR RAISING STRESS TOLERANCE OF PLANTS” (BAYER CROPSCIENCE AKTIENGESELLSCHAFT, priority 2014, published 2017).

Each structure is given as a SMILES string.

The first assay has as its system Triticum aestivum. The assay is described as follows: Drought stress test on wheat Part D, reduction in damage intensity from fresh weights. The note with it: efficacy = reduction in damage intensity (fresh weight) under drought stress, 25 g/ha, at least three repeats. The class given is in vivo. From the text:
Wheat grains were sown in a standardized number in sandy loam soil plastic pots, covered with soil or sand and grown in a greenhouse under good growth conditions. Pots with uneven degrees of emergence were excluded prior to the start of the trial. The treatment with test substances was effected at the early leaf stage (BBCH10-BBCH13). To assure uniform water supply, the potted plants were supplied with water by dam irrigation prior to substance application. The inventive compounds were first formulated as wettable powders (WP) or dissolved in a solvent mixture. The further dilution was effected with water supplemented with 0.2% wetting agent (e.g. agrotin). The finished spray liquor was sprayed onto the green parts of the plant at an equivalent water application rate of 600 l/ha. Substance application was followed immediately by stress treatment of the plants. Drought stress was induced by gradual drying out under the following conditions: “Day”: 14 hours with illumination at 26-30° C. “Night”: 10 hours without illumination at 18-20° C. The duration of the respective stress phases was guided mainly by the condition of the stressed control plants. It was ended (by re-irrigating and transfer to a greenhouse with good growth conditions) as soon as irreversible damage was observed on the stressed control plants. The end of the stress phase was followed by an about 7-day recovery phase, during which the plants were once again kept under good growth conditions in a greenhouse. The exact duration of the recovery phase was variable for reasons related to the trial. At the end of the recovery phase, the fresh weights of the plant parts above ground were determined. By comparison with unstressed control plants which were kept under good growth conditions over the entire duration of the trial, percentage damage intensities were first calculated from the fresh weight values. The reduction in damage intensity resulting from treatment with test substance was then calculated by the following formula: [formula] EF: Efficacy DIs: Damage intensity of the stressed control plants DIt: Damage intensity of the stressed plants treated with test compound The values reported in table D-1 below are results from at least three repeats. BRSNS=Brassica napus TRZAS=Triticum aestivum
As to `CCOC(=O)CCN1C(=O)CC(C)(C)c2cc(NS(=O)(=O)Cc3ccc(F)cc3)ccc21` [B52-158], the “EF [%] (TRZAS)” value was 10%.

With `COC(=O)CN1C(=O)CC(C)(C)c2cc(NS(=O)(=O)Cc3ccc([N+](=O)[O-])cc3)ccc21` [B50-175], the “EF [%] (TRZAS)” value stood at 12%.

Consider `COC(=O)CCN1C(=O)CC(C)(C)c2cc(NS(=O)(=O)Cc3cccc(Br)c3)ccc21` [B51-173], for which the “EF [%] (TRZAS)” value is given as 16%.

The assay is the same for the next values; noted with them: efficacy = reduction in damage intensity (fresh weight) under drought stress, 250 g/ha, at least three repeats.
Regarding `CCOC(=O)CCN1C(=O)CC(C)(C)c2cc(NS(=O)(=O)Cc3ccc([N+](=O)[O-])cc3)ccc21` [B52-175], the “EF [%] (TRZAS)” value is reported as 10%.

For the compound `CCOC(=O)CCN1C(=O)CC(C)(C)c2cc(NS(=O)(=O)Cc3ccc(Br)cc3)ccc21` [B52-172], the “EF [%] (TRZAS)” value is reported as 14%.

As for `COC(=O)CN1C(=O)CC(C)(C)c2cc(NS(=O)(=O)Cc3ccccc3Cl)ccc21` [B50-168], the “EF [%] (TRZAS)” value worked out at 14%.

The target in a further assay is T1, phosphatase ABI1 via the co-regulator RCAR11/PYR1 (Arabidopsis thaliana, UniProt O49686+P49597).
T1 sequence (O49686 1-191): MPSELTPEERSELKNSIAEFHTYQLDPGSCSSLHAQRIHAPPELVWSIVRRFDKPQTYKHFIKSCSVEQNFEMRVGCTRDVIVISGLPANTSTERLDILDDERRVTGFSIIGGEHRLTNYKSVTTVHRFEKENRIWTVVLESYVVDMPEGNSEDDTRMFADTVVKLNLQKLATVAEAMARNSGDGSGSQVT
T1 sequence (P49597 1-434): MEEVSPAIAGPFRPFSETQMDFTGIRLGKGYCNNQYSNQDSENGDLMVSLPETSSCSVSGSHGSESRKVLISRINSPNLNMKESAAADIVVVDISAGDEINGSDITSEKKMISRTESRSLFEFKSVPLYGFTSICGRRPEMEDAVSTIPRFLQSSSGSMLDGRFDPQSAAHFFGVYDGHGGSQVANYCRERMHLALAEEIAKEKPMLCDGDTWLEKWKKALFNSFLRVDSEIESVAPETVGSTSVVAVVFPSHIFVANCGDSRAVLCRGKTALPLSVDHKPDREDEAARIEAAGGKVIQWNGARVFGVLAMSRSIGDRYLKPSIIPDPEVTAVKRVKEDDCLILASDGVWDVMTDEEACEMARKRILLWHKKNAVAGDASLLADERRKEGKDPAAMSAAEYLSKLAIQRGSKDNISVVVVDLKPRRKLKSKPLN
The assay is described as follows: In vitro inhibition of the phosphatase ABI1 via the co-regulator RCAR11/PYR1, MUP dephosphorylation. The assay is classed as biochemical. Set-up: dose or concentration left out as unconfirmed. The note with it: in a solution of DMSO and water; fluorescence at 460 nm. From the text: Effects of the phytohormone abscisic acid (ABA) on the behavior of plants under abiotic stress and the mechanism of action of ABA are described in the literature (cf. Abrams et al., WO97/23441, Park et al. Science, 2009, 324, 1068; Grill et al. Science, 2009, 324, 1064; Tanokura et al. Biophysics, 2011, 7, 123; Schroeder et al. Plant J. 2010, 61, 290). Therefore, it is possible with the aid of a suitable in vitro test system to derive a correlation between the action of ABA and the stress response of a plant under abiotic stress. In the event of water deficiency (drought stress), plants form the phytohormone abscisic acid (ABA). This binds, along with a co-regulator (Regulatory Component of ABA-Receptor=RCAR according to Grill et al. Science, 2009, 324, 1064 or PYR/PYL according to Cutler et al. Science, 2009, 324, 1068), to a phosphatase (e.g. ABI1, a type 2C protein phosphatase, also abbreviated to PP2C) and inhibits its activity. As a result, a “downstream” kinase (e.g. SnRK2) is no longer dephosphorylated. This kinase, which is thus active, via phosphorylation of transcription factors (e.g. AREB/ABF, cf. Yoshida et al., 2010, 61, 672), switches on a genetic protection program to increase drought stress tolerance. The assay described hereinafter utilizes the inhibition of the phosphatase ABI1 via the co-regulator RCAR11/PYR1 aus Arabidopsis thaliana. For the determination of activity, the dephosphorylation of 4-methylumbelliferyl phosphate (MUP) was measured at 460 nm. The in vitro assay was conducted in Greiner 384-well PS microplates F-well, using two controls: a) 0.5% dimethyl sulfoxide (DMSO) and b) 5 μM abscisic acid (ABA). The assay described here was generally conducted with substance concentrations of the appropriate chemical test substances in a concentration range of 0.1 μM to 100 μM in a solution of DMSO and water. The substance solution thus obtained, if necessary, was stirred with esterase from porcine liver (EC 3.1.1.1) at room temperature for 3 h and centrifuged at 4000 rpm for 30 min. A total volume of 45 μl was introduced into each cavity of the microplate, having the following composition: • 1) 5 μl of substance solution, i.e. a) DMSO 5% or b) abscisic acid solution or c) the corresponding example compound of the general formula (I) dissolved in 5% DMSO. • 2) 20 μl of enzyme buffer mix, composed of a) 40% by vol. of enzyme buffer (10 mL contain equal proportions by volume of 500 mM Tris-HCl pH 8, 500 mM NaCl, 3.33 mM MnCl2, 40 mM dithiothreitol (DTT)), b) 4% by vol. of ABI1 dilution (protein stock solution was diluted so as to give, after addition, a final concentration in the assay of 0.15 μg ABI1/well), c) 4% by vol. of RCAR11 dilution (enzyme stock was diluted so as to give, on addition of the dilution to the enzyme buffer mix, a final concentration in the assay of 0.30 μg enzyme/well), d) 5% by vol. of Tween20 (1%), e) 47% by vol. H2O bi-dist. • 3) 20 μl of substrate mix, composed of a) 10% by vol. of 500 mM Tris-HCl pH8, b) 10% by vol. of 500 mM NaCl, c) 10% by vol. of 3.33 mM MnCl2, d) 5% by vol. of 25 mM MUP, 5% by vol. of Tween20 (1%), 60% by vol. of H2O bi-dist.
Enzyme buffer mix and substrate mix were made up 5 minutes prior to the addition and warmed to a temperature of 35° C. On completion of pipetting of all the solutions and on completion of mixing, the plate was incubated at 35° C. for 20 minutes. Finally, a relative fluorescence measurement was made at 35° C. with a BMG Labtech “POLARstar Optima” microplate reader using a 340/10 nm excitation filter and a 460 nm emission filter. The efficacy of the compounds of the general formula (I) is reported in the table which follows using abscisic acid […] as comparative substance (No. 37) according to the following classification: ++++ (inhibition≧90%), +++ (90%>inhibition≧70%), ++ (70%>inhibition≧50%), + (50%>inhibition≧30%). […]
Consider `Cc1ccc(CS(=O)(=O)Nc2ccc3c(c2)CCC(=O)N3CC2CCC2)cc1` [A21-152], for which the ABI1 inhibition result was “++++ (inhibition≧90%)”.

For `COC(=O)CN1C(=O)CCc2cc(NS(=O)(=O)Cc3ccc(F)cc3)ccc21` [A50-158], the ABI1 inhibition result was “+++ (90%>inhibition≧70%)”.

With `Cc1ccc(CS(=O)(=O)Nc2ccc3c(c2)CCC(=O)N3CC#N)cc1` [A16-152], the ABI1 inhibition entry is given as “++ (70%>inhibition≧50%)”.

As to `O=C1CCc2cc(NS(=O)(=O)Cc3ccc(Br)cc3)ccc2N1CC(F)(F)F` [A2-172], the ABI1 inhibition result was “++++ (inhibition≧90%)”.

For `O=C1CCc2cc(NS(=O)(=O)Cc3ccc(Cl)cc3)ccc2N1CC1CCCC1` [A22-165], the ABI1 inhibition entry is listed as “+++ (90%>inhibition≧70%)”.

In the case of `O=C1CCc2cc(NS(=O)(=O)Cc3ccc([N+](=O)[O-])cc3)ccc2N1CC1CC1` [A19-175], the ABI1 inhibition entry was “++++ (inhibition≧90%)”.

With `O=C1CCc2cc(NS(=O)(=O)Cc3ccc(Cl)cc3)ccc2N1CC1CC1(Cl)Cl` (racemic) [A32-165], the ABI1 inhibition entry is recorded as “++ (70%>inhibition≧50%)”.

`Cc1ccc(CS(=O)(=O)Nc2ccc3c(c2)CCC(=O)N3CC(F)F)cc1` [A1-152]: the ABI1 inhibition entry was “++++ (inhibition≧90%)”.

With `CC1(C)CC(=O)N(CC#N)c2ccc(NS(=O)(=O)Cc3ccc(Cl)cc3)cc21` [B16-165], the ABI1 inhibition entry is reported as “+++ (90%>inhibition≧70%)”.

As for `O=C1CCc2cc(NS(=O)(=O)Cc3ccccc3[N+](=O)[O-])ccc2N1CC(F)(F)F` [A2-177], the ABI1 inhibition result was “+++ (90%>inhibition≧70%)”.

As for `O=C1CCc2cc(NS(=O)(=O)Cc3cccc(Cl)c3)ccc2N1CC(F)(F)F` [A2-166], the ABI1 inhibition result was “+++ (90%>inhibition≧70%)”.

For the compound `CCOCCN1C(=O)CCc2cc(NS(=O)(=O)Cc3ccc(F)cc3)ccc21` [A39-158], the ABI1 inhibition result was “+ (50%>inhibition≧30%)”.

As for `COCCN1C(=O)CCc2cc(NS(=O)(=O)Cc3cccc(Cl)c3)ccc21` [A38-166], the ABI1 inhibition entry was “+++ (90%>inhibition≧70%)”.

Consider `O=C1CCc2cc(NS(=O)(=O)Cc3ccc(F)cc3)ccc2N1CC1CC1(Cl)Cl` (racemic) [A32-158], for which the ABI1 inhibition result is on record as “+ (50%>inhibition≧30%)”.

As for `N#CCCCN1C(=O)CCc2cc(NS(=O)(=O)Cc3ccc(C#N)cc3)ccc21` [A48-181], the ABI1 inhibition entry is on record as “++++ (inhibition≧90%)”.

As to `COC(=O)CCN1C(=O)CCc2cc(NS(=O)(=O)Cc3ccccc3Cl)ccc21` [A51-168], the ABI1 inhibition entry was “++++ (inhibition≧90%)”.

For `CC(C)(C)c1ccc(CS(=O)(=O)Nc2ccc3c(c2)CCC(=O)N3CC2CC2)cc1` [A19-332], the ABI1 inhibition result is reported as “++++ (inhibition≧90%)”.

Consider `COCCN1C(=O)CCc2cc(NS(=O)(=O)Cc3ccc(C)cc3)ccc21` [A38-152, N-[1-(Methoxyethyl)-2-oxo-1,2,3,4-tetrahydroquinolin-6-yl]-1-(4-methylphenyl)methanesulfonamide], for which the ABI1 inhibition entry is “++++ (inhibition≧90%)”.

`O=C1CCc2cc(NS(=O)(=O)Cc3cccc([N+](=O)[O-])c3)ccc2N1CC(F)(F)F` [A2-176]: the ABI1 inhibition result was “+++ (90%>inhibition≧70%)”.

`N#Cc1ccc(CS(=O)(=O)Nc2ccc3c(c2)CCC(=O)N3CC(F)(F)F)cc1` [A2-181]: the ABI1 inhibition entry is reported as “++++ (inhibition≧90%)”.

As for `N#Cc1ccc(CS(=O)(=O)Nc2ccc3c(c2)CCC(=O)N3CC(F)F)cc1` [A1-181], the ABI1 inhibition result is “++++ (inhibition≧90%)”.

With `COC(=O)CN1C(=O)CCc2cc(NS(=O)(=O)Cc3ccc(Cl)cc3)ccc21` [A50-165], the ABI1 inhibition result is “++++ (inhibition≧90%)”.

Regarding `Cc1ccc(CS(=O)(=O)Nc2ccc3c(c2)CCC(=O)N3CC(F)(F)C(F)(F)F)cc1` [A10-152], the ABI1 inhibition result is listed as “++++ (inhibition≧90%)”.

Consider `CCc1ccc(S(=O)(=O)Nc2ccc3c(c2)CCC(=O)N3CC2CCC2)cc1` [A21-601], for which the ABI1 inhibition entry is “++++ (inhibition≧90%)”.
